Legend:
TF-FVIIa [1] = target: T1, TF-FVIIa (Homo sapiens, UniProt P08709); details: literature, cited from earlier work; for maximal extent of inhibition of the amidolytic activity: saturating concentrations of peptide
Target sequence in this assay (P13726 33-251 partner limits assumed, one chain of several): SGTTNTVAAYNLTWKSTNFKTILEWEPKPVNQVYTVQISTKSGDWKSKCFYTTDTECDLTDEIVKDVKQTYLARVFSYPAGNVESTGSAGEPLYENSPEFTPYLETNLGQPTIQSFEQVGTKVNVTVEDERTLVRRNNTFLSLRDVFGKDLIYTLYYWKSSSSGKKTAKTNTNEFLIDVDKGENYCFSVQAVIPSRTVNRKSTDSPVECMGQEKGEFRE

TF-FVIIa [2] = target: T1, TF-FVIIa; details: literature, cited from earlier work; for maximal inhibition of FX activation: saturating concentrations of peptide
Target sequence in this assay (P13726 33-275 partner limits assumed, one chain of several): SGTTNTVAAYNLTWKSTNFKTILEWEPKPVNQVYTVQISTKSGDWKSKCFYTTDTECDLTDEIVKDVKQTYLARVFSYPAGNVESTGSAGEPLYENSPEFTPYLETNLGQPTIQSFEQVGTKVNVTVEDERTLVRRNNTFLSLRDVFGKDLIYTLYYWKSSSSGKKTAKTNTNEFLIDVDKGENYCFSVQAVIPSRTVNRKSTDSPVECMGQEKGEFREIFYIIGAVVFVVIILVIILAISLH

[3] = system: citrated pooled normal human plasma; assay: Prothrombin time (PT) clotting assay initiated by TF and Ca2+; assay type: biochemical; details: Innovin
Experimental: The prothrombin time (PT) assay was performed in citrated pooled normal human plasma as described previously (Dennis, M. S., et al., (2000) Nature, 404: 465–470). Clotting times were determined using an ACL 300 Coagulation Analyzer (Coulter Corp., Miami, Fla.) using Innovin (human relipidated TF and Ca2+) from Dade International Inc. to initiate the assay.

FVIIa = target: T2, FVIIa (Homo sapiens, UniProt P08709); details: pH 7.2; read-out: binding constant Kd to FVIIa; cited from earlier work
T2 sequence (P08709 213-466 limits assumed): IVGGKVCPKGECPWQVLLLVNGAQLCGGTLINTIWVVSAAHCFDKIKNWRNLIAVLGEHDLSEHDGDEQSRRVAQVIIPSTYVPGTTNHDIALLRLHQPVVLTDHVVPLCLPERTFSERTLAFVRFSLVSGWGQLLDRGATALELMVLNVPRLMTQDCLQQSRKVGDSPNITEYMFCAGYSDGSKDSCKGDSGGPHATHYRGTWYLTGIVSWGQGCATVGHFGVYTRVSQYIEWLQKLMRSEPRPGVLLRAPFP
T2 sequence (P08709 61-212 limits assumed): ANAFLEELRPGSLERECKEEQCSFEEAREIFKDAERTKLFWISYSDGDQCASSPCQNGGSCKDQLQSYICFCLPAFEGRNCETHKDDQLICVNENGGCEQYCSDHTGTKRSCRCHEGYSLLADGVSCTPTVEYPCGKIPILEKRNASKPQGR

TF-FVIIa [4] = target: T1, TF-FVIIa; assay: Inhibition of TF-FVIIa catalyzed activation of FX; assay type: biochemical; details: saturating peptide
Target sequence in this assay (P13726 33-275 partner limits assumed, one chain of several): as the sequence (P13726 33-275 partner limits assumed, one chain of several) above
Experimental: Inhibition of FX activation by TF-VIIa was determined with 300 pM relipidated TF1-243, 20 pM FVIIa , and 165 nM FX at 25° C. as a function of peptide concentration essentially as described (Dennis, M. S., et al., (2000) Nature, 404: 465–470; Kelley, R. F., et al., (1997) Blood, 89: 3219–3227). TF was incorporated into phospholipid vesicles and quantified as previously described (Kelley, R. F., et al., (1997) Blood, 89: 3219–3227). The linear rates of FXa generation can be expressed as mOD405/min/min or as fractional activities (vi/v0).

| Substance | maximal extent of inhibition of the amidolytic activity (TF-FVIIa [1]) | IC50 for inhibition of activation of FX to FXa by TF-FVIIa (TF-FVIIa [2]) | maximal inhibition of FX activation (TF-FVIIa [2]) | inhibition of amidolytic activity (in words) (TF-FVIIa [1]) | fold prolongation of the clotting time [3] | Kd (FVIIa) | extent of inhibition of FX activation upon saturation (TF-FVIIa [4]) |
| --- | --- | --- | --- | --- | --- | --- | --- |
| EEWEVACWTWETCER [Peptide E-76] | 50% | nanomolar range | 90% |  |  |  |  |
| EEWEVLCWTWETCER [Peptide A-183] | 32% | nanomolar range | 78% | potent but incomplete inhibition | 1.6 fold | 2.8 nM |  |
| Z-GGSGGDDDDK-EEWEVLCWTWETCER [Z-A-183] |  |  |  |  |  |  | 80% |

Source: US7164002B2, “FVIIa antagonists” (Genentech, Inc., priority 2002, dated 2007)
